Test results taken from patent US20120196899A1, “METHODS AND PRODUCTS FOR TREATING INFLAMMATION” (Rock Creek Pharmaceuticals, Inc., priority 2010, published 2012).
“And” between values parts separate entries of the source, which are not always exact repeats. Equal values may be shown once. “Also recorded” adds a separate entry of the source.

Assays:
[1] = Urinalysis, day 15; assay type: in vivo, Sprague-Dawley rats
From the text: (§1) On day 15, urine was collected on all surviving animals for urinalysis. The animals were euthanized and bled via cardiac puncture. Blood was collected for hematology, clinical chemistry, and coagulation analysis. Tissues were collected, weighed, and stored in 10% neutral-buffered formalin for possible future analysis.
There were no notable differences between the active treatment groups and controls and the observations are all consistent with those expected for this species.

[2] = system: autoimmune thyroiditis; assay: Autoimmune thyroiditis in thyroglobulin-immunized mice (Example 16B); assay type: in vivo, CBA/J female mice; settings: 0.05 mg/ml in drinking water
Protocol: In another experiment, eighteen CBA/J female mice were immunized with mouse thyroglobulin, emulsified in complete Freund's adjuvant, on day 0 and day 7. One group of mice (n=10) drank regular water. […] Mice were sacrificed 21 days after the first immunization to collect the thyroid gland and the blood. The thyroid was analyzed for the presence of infiltrating mononuclear cells. The blood was analyzed for the levels of antibodies against thyroglobulin.

[3] = system: Experimental Autoimmune Thyroiditis; assay: Experimental Autoimmune Thyroiditis (Example 16A): lymphoid typing by flow cytometry; assay type: in vivo, mice; settings: p=0.0143
Protocol: Thyroiditis was induced by injection of thyroglobulin emulsified in complete Freund's adjuvant (CFA). On days 0 and 7, female mice received subcutaneous injection of 100 μg thyroglobulin (2 injections of 50 μg each). Control mice drank water. […] Mice were sacrificed on day 21.
Lymphoid typing. Cervical lymph nodes were removed for lymphoid typing by flow cytometry. Spleen and peritoneal macrophages were removed for ex vivo stimulation.

[4] = Hematology, day 15; assay type: in vivo, Sprague-Dawley rats
From the text: as §1

[5] = Anatabine dose 0.1 mg/kg, individual animals B1-B10 (M and F), 0.1 mg/kg
[6] = Anatabine dose 0.75 mg/kg, individual animals C1-C10 (M and F)
[7] = Anatabine dose 0.75 mg/kg, individual animals C1-C10 (M and F), 0.75 mg/kg
[8] = anatabine 0.75 mg/kg, individual animals C1-C10 (M, F)

In the case of `C1=CCC(c2cccnc2)NC1` (racemic) [Anatabine, 1,2,3,6-tetrahydro-[2,3′]bipyridinyl], the “Urinalysis BLOOD” value [1, 5] is reported as “TRACE; also recorded: NEGA-”, the “Urinalysis KETONES” value [1, 5] is reported as “NEGATIVE” and the “Urinalysis PROTEIN” value [1, 5] is reported as “TRACE; also recorded: NEGA-”. The “Urinalysis SPEC GRAVITY” value [1, 5] was 1.027 (2×) and 1.039 (2×) and 1.048 and 1.036 and 1.045 and 1.017, the “Urinalysis pH” value [1, 5] was 8.5 and 7.5 (4×) and 7 (2×) and 8 and the “Urinalysis CLARITY” value [1, 6] was “HAZY”. The “Urinalysis COLOR” value [1, 6] was “YELLOW”, the “Urinalysis GLUCOSE” value [1, 6] was “NEGATIVE” and the “Urinalysis UROBILINOGEN” value [1, 6] was “NORMAL”. For the same molecule, the “Urinalysis BILIRUBIN” value [1, 7] was “NEGATIVE”, the “Urinalysis BLOOD” value [1, 7] was “TRACE; also recorded: NEGA-” and the “Urinalysis KETONES” value [1, 7] was “NEGATIVE”. The “Urinalysis PROTEIN” value [1, 7] was “TRACE”, the “Urinalysis SPEC GRAVITY” value [1, 7] was 1.05 and 1.051 and 1.043 and 1.049 and 1.016 and 1.039 and 1.036 and 1.014 and the “Urinalysis VOLUME” value [1, 7] was <0.5 mL (8×) and <0.25 mL. The “Urinalysis pH” value [1, 7] was 7 (3×) and 8 (3×) and 7.5 and 6, the “levels of thyroglobulin antibodies” value ([2]; day 21) was “had no effect on the levels of thyroglobulin antibodies” and the “thyroiditis frequency and severity” value ([2]; day 21, p=0.023) was “developed thyroiditis less frequently and of lower severity”. For the same molecule, the “activated T cells” value ([3]; cervical lymph nodes) was “fewer activated T cells”, the “regulatory T cells” value ([3]; cervical lymph nodes) was “more regulatory T cells” and the “ability to present antigens” value [3] was “a lower ability to present antigens”. For the same molecule, the MCH ([4]; anatabine 0.1 mg/kg, individual animals B1-B10 (M, F)) was 21.9 UUG and 21.8 UUG, the MCH [4, 8] was 20.3 UUG and 21 UUG and 22 UUG and 19.9 UUG and the MCHC [4, 8] was 34.2% and 34.3%. For the same molecule, the EOSINOPHIL ([4]; female, 0.1 mg/kg, group mean) was 0.0%, the HCT ([4]; female, 0.1 mg/kg, group mean) was 46.4% and the LYMPHOCYTE ([4]; female, 0.1 mg/kg, group mean) was 90.2%. The MCHC ([4]; female, 0.1 mg/kg, group mean) was 33.7%, the MCV ([4]; female, 0.1 mg/kg, group mean) was 60.0 fL and the MONOCYTE ([4]; female, 0.1 mg/kg, group mean) was 1.8%. The “NEUTROPHIL SEG” value ([4]; female, 0.1 mg/kg, group mean) was 8.0%, the “PLATELET COUNT” value ([4]; female, 0.1 mg/kg, group mean) was 997300 µL⁻¹ and the RBC ([4]; female, 0.1 mg/kg, group mean) was 7.8e+06 µL⁻¹. For the same molecule, the “RETICULOCYTE COUNT” value ([4]; female, 0.1 mg/kg, group mean) was 4.5%, the WBC ([4]; female, 0.1 mg/kg, group mean) was 9300 µL⁻¹ and the EOSINOPHIL ([4]; female, 0.75 mg/kg, group mean) was 0.0%. It also gave an HCT ([4]; female, 0.75 mg/kg, group mean) of 45.2%, an HGB ([4]; female, 0.75 mg/kg, group mean) of 15.4 g/dL and an LYMPHOCYTE ([4]; female, 0.75 mg/kg, group mean) of 90.6%. For the same molecule, the MCV ([4]; female, 0.75 mg/kg, group mean) was 59.8 fL, the MONOCYTE ([4]; female, 0.75 mg/kg, group mean) was 0.8% and the “NEUTROPHIL SEG” value ([4]; female, 0.75 mg/kg, group mean) was 8.6%. The “PLATELET COUNT” value ([4]; female, 0.75 mg/kg, group mean) was 1.2696e+06 µL⁻¹, the RBC ([4]; female, 0.75 mg/kg, group mean) was 7.5e+06 µL⁻¹ and the “RETICULOCYTE COUNT” value ([4]; female, 0.75 mg/kg, group mean) was 3.3%. For the same molecule, the WBC ([4]; female, 0.75 mg/kg, group mean) was 10300 µL⁻¹, the “mean corpuscular volume (MCV) and mean corpuscular hemoglobin (MCH)” value ([4]; females, anatabine […], nicotine 0.75 mg/kg single i.v.) was “small, but statistically significant decreases” and the EOSINOPHIL ([4]; male, 0.1 mg/kg, group mean) was 0.2%. The HCT ([4]; male, 0.1 mg/kg, group mean) was 47.1%, the HGB ([4]; male, 0.1 mg/kg, group mean) was 15.8 g/dL and the LYMPHOCYTE ([4]; male, 0.1 mg/kg, group mean) was 89.2%. The MCV ([4]; male, 0.1 mg/kg, group mean) was 63.4 fL, the MONOCYTE ([4]; male, 0.1 mg/kg, group mean) was 2.0% and the “NEUTROPHIL SEG” value ([4]; male, 0.1 mg/kg, group mean) was 8.6%. For the same molecule, the “PLATELET COUNT” value ([4]; male, 0.1 mg/kg, group mean) was 1.2486e+06 µL⁻¹, the RBC ([4]; male, 0.1 mg/kg, group mean) was 7.4e+06 µL⁻¹ and the “RETICULOCYTE COUNT” value ([4]; male, 0.1 mg/kg, group mean) was 5.5%. It also gave a WBC ([4]; male, 0.1 mg/kg, group mean) of 15600 µL⁻¹, an EOSINOPHIL ([4]; male, 0.75 mg/kg, group mean) of 0.0% and an HCT ([4]; male, 0.75 mg/kg, group mean) of 45.8%. For the same molecule, the LYMPHOCYTE ([4]; male, 0.75 mg/kg, group mean) was 88.8%, the MCHC ([4]; male, 0.75 mg/kg, group mean) was 34.0% and the MCV ([4]; male, 0.75 mg/kg, group mean) was 61.4 fL. The MONOCYTE ([4]; male, 0.75 mg/kg, group mean) was 1.4%, the “NEUTROPHIL SEG” value ([4]; male, 0.75 mg/kg, group mean) was 9.8% and the “PLATELET COUNT” value ([4]; male, 0.75 mg/kg, group mean) was 1.3258e+06 µL⁻¹. The RBC ([4]; male, 0.75 mg/kg, group mean) was 7.5e+06 µL⁻¹, the “RETICULOCYTE COUNT” value ([4]; male, 0.75 mg/kg, group mean) was 4.4% and the WBC ([4]; male, 0.75 mg/kg, group mean) was 12100 µL⁻¹.
